The target in assay [1] is T1, Polyamine deacetylase HDAC10 (Homo sapiens, UniProt Q969S8).
T1 sequence (Q969S8 whole entry): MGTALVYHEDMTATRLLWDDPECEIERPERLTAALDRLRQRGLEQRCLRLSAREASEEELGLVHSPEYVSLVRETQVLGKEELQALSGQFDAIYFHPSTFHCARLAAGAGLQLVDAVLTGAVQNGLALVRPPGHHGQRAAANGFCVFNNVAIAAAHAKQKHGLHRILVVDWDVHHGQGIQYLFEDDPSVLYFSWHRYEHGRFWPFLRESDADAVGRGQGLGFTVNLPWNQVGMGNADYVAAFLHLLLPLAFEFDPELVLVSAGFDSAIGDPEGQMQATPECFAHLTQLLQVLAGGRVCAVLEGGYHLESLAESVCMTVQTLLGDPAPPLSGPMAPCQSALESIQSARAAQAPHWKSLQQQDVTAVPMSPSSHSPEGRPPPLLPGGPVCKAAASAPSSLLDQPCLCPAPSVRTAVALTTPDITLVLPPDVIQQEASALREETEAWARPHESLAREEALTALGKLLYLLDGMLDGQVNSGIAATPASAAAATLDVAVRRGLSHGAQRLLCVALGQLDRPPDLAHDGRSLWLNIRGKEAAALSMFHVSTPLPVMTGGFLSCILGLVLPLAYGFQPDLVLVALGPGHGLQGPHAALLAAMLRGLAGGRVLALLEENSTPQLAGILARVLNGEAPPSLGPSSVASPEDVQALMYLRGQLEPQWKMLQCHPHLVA
Nature of the assay: Inhibition of recombinant human N-terminal FLAG-tagged HDAC10 (1 to 613 residues) expressed in Sf9 insect cells using Fluor de Lys deacetylase or Fluor de Lys Green deacetylase substrate by fluorescent microplate reader assay.

In another assay the target is Histone deacetylase 2 (Homo sapiens, UniProt Q92769). Nature of the assay: Inhibition of recombinant human C-terminal His-tagged HDAC2 (1 to 488 residues) expressed in Sf9 insect cells using Fluor de Lys deacetylase or Fluor de Lys Green deacetylase substrate by fluorescent microplate reader assay.
Sequence of Histone deacetylase 2 (Q92769 whole entry, the tested form may be a part): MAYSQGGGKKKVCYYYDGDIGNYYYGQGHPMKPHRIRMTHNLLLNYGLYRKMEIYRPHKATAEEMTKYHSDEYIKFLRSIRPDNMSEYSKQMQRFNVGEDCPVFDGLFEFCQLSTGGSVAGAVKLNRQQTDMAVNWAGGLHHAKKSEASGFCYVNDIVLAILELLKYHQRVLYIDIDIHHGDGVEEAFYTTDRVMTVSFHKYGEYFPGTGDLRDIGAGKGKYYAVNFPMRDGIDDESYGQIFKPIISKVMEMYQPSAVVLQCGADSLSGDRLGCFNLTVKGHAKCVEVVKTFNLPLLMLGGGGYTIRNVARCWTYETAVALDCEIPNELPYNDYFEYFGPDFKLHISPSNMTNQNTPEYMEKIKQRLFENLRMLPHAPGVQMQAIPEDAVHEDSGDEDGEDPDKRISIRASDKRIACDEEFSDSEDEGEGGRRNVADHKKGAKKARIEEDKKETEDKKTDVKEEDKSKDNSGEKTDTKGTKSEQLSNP
A further assay deals with Histone deacetylase 3 (Homo sapiens, UniProt O15379). Nature of the assay: Inhibition of recombinant human C-terminal His-tagged HDAC3 (1 to 428 residues) expressed in Sf9 insect cells using Fluor de Lys deacetylase or Fluor de Lys Green deacetylase substrate by fluorescent microplate reader assay.
Sequence of Histone deacetylase 3 (O15379 whole entry, the tested form may be a part): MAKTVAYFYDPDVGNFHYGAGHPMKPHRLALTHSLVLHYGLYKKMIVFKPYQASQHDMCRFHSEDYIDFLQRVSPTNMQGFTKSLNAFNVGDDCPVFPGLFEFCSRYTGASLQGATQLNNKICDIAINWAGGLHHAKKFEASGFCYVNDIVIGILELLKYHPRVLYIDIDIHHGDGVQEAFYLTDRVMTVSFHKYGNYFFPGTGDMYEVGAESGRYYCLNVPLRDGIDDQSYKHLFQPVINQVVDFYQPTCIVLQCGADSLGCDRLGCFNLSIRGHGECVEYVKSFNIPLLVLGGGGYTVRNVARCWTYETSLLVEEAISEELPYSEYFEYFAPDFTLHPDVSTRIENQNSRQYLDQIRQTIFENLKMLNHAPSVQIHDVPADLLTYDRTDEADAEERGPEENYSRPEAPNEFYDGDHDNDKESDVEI
Another assay addresses T2, Histone deacetylase 11 (Homo sapiens, UniProt Q96DB2).
T2 sequence (Q96DB2 whole entry): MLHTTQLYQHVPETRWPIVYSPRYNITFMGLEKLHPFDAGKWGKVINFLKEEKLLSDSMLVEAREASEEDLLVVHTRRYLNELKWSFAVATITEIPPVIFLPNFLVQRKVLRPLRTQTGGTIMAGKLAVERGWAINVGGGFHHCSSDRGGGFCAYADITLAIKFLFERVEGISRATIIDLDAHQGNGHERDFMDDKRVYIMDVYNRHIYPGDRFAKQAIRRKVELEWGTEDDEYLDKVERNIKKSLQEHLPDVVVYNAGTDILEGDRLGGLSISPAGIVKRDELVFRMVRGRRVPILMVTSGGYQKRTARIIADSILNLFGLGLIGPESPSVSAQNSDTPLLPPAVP
As to the kind of experiment: Inhibition of recombinant human N-terminal His-tagged HDAC11 expressed in baculovirus expression system using Fluor de Lys deacetylase or Fluor de Lys Green deacetylase substrate by fluorescent microplate reader assay.

For assay [2], the target named is T3, Protein deacetylase HDAC6 (Homo sapiens, UniProt Q9UBN7).
T3 sequence (Q9UBN7 whole entry): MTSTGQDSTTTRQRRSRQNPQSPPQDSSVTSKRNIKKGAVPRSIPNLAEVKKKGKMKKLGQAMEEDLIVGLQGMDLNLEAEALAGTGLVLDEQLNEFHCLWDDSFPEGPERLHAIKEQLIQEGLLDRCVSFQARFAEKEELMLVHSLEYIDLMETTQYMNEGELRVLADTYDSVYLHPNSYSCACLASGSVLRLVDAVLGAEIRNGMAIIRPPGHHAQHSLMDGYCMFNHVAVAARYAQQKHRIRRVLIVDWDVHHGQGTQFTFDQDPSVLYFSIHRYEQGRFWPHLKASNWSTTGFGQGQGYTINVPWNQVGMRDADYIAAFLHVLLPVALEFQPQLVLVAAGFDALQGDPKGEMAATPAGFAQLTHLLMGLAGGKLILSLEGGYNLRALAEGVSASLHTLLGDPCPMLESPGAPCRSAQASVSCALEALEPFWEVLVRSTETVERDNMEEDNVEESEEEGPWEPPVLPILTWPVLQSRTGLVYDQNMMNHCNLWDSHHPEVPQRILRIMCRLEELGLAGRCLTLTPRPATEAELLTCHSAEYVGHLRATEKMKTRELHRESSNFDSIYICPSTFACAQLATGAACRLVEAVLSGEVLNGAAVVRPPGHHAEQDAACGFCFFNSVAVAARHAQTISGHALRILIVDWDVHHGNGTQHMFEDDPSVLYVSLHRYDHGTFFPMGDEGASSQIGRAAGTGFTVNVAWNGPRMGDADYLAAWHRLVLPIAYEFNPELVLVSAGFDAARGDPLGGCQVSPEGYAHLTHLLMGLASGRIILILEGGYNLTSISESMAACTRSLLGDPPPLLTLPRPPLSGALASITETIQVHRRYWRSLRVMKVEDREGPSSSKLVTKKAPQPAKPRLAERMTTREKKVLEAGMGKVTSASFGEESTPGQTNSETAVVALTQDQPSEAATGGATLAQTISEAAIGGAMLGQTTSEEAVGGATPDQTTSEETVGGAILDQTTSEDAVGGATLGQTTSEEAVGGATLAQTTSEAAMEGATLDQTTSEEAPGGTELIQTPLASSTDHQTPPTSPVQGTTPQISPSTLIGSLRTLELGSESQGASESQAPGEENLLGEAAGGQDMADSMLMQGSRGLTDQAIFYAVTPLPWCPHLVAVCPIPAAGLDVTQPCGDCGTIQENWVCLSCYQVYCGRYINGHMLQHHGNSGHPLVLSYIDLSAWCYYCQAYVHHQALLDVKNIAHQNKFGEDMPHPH
Nature of the assay: Inhibition of recombinant human full length N-terminal GST-tagged HDAC6 expressed in Sf9 insect cells using Fluor de Lys deacetylase or Fluor de Lys Green deacetylase substrate by fluorescent microplate reader assay.

The next assay has as its target Histone deacetylase 1 (Homo sapiens, UniProt Q13547). Nature of the assay: Inhibition of recombinant human C-terminal His-tagged HDAC1 expressed in Sf9 insect cells using Fluor de Lys deacetylase or Fluor de Lys Green deacetylase as substrate by fluorescent microplate reader assay.
For the next assay, the species on record is Homo sapiens. As to the kind of experiment: Selectivity index, ratio of IC50 for recombinant human C-terminal His-tagged HDAC1 expressed in Sf9 cells to IC50 for recombinant human full length N-terminal GST-tagged HDAC6 expressed in Sf9 cells.
The target in a further assay is Histone deacetylase 9 (Homo sapiens, UniProt Q9UKV0). As to the kind of experiment: Inhibition of recombinant human C-terminal His-tagged HDAC9 (604 to 1066 residues) expressed in baculovirus expression system using Nepsilon-Trifluoroacetyl L-lysine substrate by fluorescent microplate reader assay.
Sequence of Histone deacetylase 9 (Q9UKV0 whole entry, the tested form may be a part): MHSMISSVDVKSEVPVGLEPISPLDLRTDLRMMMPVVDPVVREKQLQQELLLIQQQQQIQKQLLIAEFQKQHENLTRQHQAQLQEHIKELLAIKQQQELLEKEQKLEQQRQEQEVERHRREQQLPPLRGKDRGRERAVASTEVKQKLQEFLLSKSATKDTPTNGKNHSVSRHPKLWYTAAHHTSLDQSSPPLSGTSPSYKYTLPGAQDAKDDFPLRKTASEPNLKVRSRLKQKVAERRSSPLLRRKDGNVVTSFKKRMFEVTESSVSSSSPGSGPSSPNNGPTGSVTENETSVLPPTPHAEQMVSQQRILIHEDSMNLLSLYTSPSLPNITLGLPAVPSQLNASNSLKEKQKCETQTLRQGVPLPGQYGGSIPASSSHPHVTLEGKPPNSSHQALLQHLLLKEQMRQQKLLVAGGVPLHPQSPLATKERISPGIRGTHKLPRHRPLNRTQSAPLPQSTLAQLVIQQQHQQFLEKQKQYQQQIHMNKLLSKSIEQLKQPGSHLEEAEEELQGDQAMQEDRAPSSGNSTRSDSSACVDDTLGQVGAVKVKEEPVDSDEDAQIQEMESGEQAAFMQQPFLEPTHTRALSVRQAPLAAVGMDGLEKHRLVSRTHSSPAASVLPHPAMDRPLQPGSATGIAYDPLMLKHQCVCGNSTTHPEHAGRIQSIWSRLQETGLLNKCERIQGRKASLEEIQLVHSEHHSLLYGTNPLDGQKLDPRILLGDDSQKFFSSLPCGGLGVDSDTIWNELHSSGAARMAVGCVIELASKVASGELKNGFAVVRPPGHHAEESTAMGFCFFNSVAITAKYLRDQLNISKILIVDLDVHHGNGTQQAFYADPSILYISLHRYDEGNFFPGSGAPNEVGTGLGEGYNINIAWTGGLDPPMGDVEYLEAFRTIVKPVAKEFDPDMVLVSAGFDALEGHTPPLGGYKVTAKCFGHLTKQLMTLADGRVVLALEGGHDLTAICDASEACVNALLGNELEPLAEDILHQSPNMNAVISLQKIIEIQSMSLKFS
The target of a further assay is Histone deacetylase 5 (Homo sapiens, UniProt Q9UQL6). As to the kind of experiment: Inhibition of recombinant human ful length N-terminal GST-tagged HDAC5 expressed in baculovirus expression system using Nepsilon-Trifluoroacetyl L-lysine as substrate by fluorescent microplate reader assay.
Sequence of Histone deacetylase 5 (Q9UQL6 whole entry, the tested form may be a part): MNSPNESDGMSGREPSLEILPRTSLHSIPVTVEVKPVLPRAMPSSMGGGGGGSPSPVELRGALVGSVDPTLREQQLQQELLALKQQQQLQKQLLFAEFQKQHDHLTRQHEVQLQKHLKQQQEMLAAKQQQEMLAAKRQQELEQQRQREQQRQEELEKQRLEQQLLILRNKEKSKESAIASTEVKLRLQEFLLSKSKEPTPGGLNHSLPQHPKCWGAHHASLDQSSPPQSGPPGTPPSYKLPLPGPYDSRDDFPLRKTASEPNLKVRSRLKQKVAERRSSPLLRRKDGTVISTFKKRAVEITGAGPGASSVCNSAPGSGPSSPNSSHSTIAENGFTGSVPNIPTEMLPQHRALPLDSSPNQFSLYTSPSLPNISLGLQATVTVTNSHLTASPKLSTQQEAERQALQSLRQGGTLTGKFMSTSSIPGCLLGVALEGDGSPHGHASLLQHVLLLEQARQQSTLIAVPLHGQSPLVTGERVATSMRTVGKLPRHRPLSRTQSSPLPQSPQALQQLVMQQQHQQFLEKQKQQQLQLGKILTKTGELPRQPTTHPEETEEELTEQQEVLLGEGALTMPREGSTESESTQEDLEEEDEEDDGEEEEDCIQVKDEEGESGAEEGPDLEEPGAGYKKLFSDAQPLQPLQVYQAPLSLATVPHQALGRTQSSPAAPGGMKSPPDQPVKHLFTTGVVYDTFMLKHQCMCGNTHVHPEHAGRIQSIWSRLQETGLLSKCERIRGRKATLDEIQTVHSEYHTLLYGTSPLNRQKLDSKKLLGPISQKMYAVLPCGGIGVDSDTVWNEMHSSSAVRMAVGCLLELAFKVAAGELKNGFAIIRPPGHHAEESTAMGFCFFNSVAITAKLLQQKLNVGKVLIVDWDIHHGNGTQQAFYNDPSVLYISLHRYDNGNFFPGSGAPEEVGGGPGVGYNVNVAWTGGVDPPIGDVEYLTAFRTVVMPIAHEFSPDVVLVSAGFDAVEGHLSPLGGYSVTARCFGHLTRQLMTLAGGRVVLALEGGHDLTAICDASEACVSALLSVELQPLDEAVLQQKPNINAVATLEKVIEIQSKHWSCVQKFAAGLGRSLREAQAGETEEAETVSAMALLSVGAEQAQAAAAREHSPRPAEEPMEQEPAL
The next assay has as its target Histone deacetylase 4 (Homo sapiens, UniProt P56524). As to the kind of experiment: Inhibition of recombinant human N-terminal GST-tagged and C-terminal His-tagged HDAC4 (627 to 1084 residues) expressed in Sf9 insect cells using Nepsilon-Trifluoroacetyl L-lysine as substrate by fluorescent microplate reader assay.
A further assay addresses T4, Histone deacetylase 8 (Homo sapiens, UniProt Q9BY41).
T4 sequence (Q9BY41 whole entry): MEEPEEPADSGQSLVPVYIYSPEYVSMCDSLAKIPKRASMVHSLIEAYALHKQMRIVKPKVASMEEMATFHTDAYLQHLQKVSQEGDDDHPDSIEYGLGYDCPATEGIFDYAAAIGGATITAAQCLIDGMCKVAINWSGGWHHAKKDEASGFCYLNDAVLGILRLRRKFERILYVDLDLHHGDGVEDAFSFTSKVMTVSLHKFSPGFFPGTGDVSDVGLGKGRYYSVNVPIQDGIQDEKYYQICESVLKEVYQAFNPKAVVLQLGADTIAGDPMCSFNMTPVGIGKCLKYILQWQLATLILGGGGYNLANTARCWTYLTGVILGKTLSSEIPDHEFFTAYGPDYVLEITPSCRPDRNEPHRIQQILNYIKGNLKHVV
As to the kind of experiment: Inhibition of recombinant human full length C-terminal His-tagged HDAC8 expressed in baculovirus expression system using Fluor de Lys deacetylase or Fluor de Lys Green deacetylase substrate by fluorescent microplate reader assay.

This is an account of results in ChEMBL document CHEMBL4825781, “Role of Fluorination in the Histone Deacetylase 6 (HDAC6) Selectivity of Benzohydroxamate-Based Inhibitors” (ACS Med Chem Lett, 2021).

Sequence of Histone deacetylase 1 (Q13547 whole entry): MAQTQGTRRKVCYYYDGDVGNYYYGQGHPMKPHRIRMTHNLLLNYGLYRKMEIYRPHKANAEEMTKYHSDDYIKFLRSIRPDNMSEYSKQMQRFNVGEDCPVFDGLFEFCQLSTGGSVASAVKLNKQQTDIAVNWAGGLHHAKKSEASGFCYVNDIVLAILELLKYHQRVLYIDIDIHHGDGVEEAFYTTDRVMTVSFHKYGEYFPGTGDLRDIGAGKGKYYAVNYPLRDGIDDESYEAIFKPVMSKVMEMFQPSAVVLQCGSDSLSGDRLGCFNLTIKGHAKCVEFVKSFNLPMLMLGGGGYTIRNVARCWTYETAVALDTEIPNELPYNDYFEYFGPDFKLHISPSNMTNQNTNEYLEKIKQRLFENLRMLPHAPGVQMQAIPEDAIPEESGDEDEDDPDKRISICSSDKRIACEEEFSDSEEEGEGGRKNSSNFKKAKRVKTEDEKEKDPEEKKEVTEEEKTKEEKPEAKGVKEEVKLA
Sequence of Histone deacetylase 4 (P56524 whole entry, the tested form may be a part): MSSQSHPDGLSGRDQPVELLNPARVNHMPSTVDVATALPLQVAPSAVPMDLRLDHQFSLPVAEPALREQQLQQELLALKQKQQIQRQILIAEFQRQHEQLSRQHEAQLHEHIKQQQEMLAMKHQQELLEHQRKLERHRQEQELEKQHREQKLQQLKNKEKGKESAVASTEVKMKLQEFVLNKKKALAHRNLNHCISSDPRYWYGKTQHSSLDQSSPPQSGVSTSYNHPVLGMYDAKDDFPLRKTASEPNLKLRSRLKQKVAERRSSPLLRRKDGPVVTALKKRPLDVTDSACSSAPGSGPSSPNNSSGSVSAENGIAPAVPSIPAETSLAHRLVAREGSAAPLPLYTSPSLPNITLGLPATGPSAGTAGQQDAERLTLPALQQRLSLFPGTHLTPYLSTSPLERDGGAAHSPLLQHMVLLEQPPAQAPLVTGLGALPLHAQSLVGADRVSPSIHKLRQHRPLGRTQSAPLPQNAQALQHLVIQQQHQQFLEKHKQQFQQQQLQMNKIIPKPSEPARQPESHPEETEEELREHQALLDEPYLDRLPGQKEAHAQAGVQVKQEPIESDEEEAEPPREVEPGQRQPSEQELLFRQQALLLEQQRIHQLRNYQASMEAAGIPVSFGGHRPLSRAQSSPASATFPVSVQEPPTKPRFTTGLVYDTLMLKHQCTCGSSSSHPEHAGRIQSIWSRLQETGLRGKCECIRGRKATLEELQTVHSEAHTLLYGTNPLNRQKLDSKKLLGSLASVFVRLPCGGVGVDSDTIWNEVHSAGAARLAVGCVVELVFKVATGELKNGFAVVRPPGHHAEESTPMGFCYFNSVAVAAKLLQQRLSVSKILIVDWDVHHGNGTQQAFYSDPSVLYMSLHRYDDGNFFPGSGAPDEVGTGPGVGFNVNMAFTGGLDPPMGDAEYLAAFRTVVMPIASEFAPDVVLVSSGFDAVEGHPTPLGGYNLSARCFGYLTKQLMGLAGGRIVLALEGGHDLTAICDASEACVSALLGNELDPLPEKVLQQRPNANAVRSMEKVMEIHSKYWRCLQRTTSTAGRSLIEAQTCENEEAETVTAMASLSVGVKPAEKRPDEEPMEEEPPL

For orientation: IC50 means the concentration that gives 50% inhibition. Take `O=C(NO)c1cc(F)c(Cn2nnnc2-c2cccs2)c(F)c1`: the IC50 in assay [1] is 8.74 µM; on Histone deacetylase 2 it was 9.23 µM; at Histone deacetylase 3, 6.04 µM; on Histone deacetylase 11 it was 5.66 µM.

For `CCN(CC)Cc1ccc2cc(COC(=O)Nc3c(F)cc(C(=O)NO)cc3F)ccc2c1`, the IC50 is 0.01 µM in assay [2] and 0.718 µM on Histone deacetylase 1. Moreover, in the assay filed under Homo sapiens, the Selectivity Index came out at 70.

Regarding `O=C(NO)c1cccc(F)c1`, the IC50 in assay [2] is 0.453 µM; on Histone deacetylase 1 it was 29.4 µM. Moreover, in the assay listed under Homo sapiens, the Selectivity Index was 64.

Turning to `CC(=O)Nc1ccc(C(=O)NO)cc1`, the IC50 came out at 0.162 µM in assay [2] and 1.91 µM on Histone deacetylase 1. Further, the Selectivity Index in the assay listed under Homo sapiens is 11.

Regarding `Nc1ccc(C(=O)NO)cc1F`, the IC50 was determined as 0.183 µM in assay [2] and 7.39 µM at Histone deacetylase 1. Further, in the assay listed under Homo sapiens, the Selectivity Index stood at 40.

In the case of `Nc1ccc(C(=O)NO)cc1`, the IC50 turned out to be 0.389 µM in assay [2] and 7.14 µM on Histone deacetylase 1. Moreover, the Selectivity Index in the assay listed under Homo sapiens was 18.

For the molecule `Nc1ncc(C(=O)NO)cn1`, the IC50 in assay [2] came out at 0.064 µM; at Histone deacetylase 1, 3.06 µM. For the same molecule, the Selectivity Index in the assay listed under Homo sapiens turned out to be 47.

On to `O=C(NO)c1cc(F)c(Cn2nnc(-c3ncccn3)n2)c(F)c1`, for which the IC50 on Histone deacetylase 9 stood at 0.48 µM; in [1] it was 9.08 µM; at Histone deacetylase 2, 17.2 µM; at Histone deacetylase 3, 5.18 µM; on Histone deacetylase 5, 2.79 µM; at Histone deacetylase 11, 3.07 µM. Moreover, the IC50 at Histone deacetylase 4 turned out to be 0.562 µM; on Histone deacetylase 1, 3.96 µM; at Histone deacetylase 8 it was 0.504 µM.

Consider `Cc1ccc(C(=O)NO)cn1`, for which the IC50 in assay [2] came to 0.07 µM; on Histone deacetylase 1 it was 11.4 µM. Also, the Selectivity Index in the assay listed under Homo sapiens stood at 162.

`Nc1c(F)cc(C(=O)NO)cc1F`: the values for the IC50 (in assay [2]; at Histone deacetylase 1) were 0.112 µM and 15.8 µM, respectively. Besides, the Selectivity Index in the assay listed under Homo sapiens was determined as 141.

As to `Cc1ccc(C(=O)NO)cc1F`, the values for the IC50 (in assay [2]; on Histone deacetylase 1) were 0.049 µM and 6.82 µM, respectively. In addition, the Selectivity Index in the assay filed under Homo sapiens is 140.

In the case of `O=C(NO)c1ccccc1` [BENZOHYDROXAMATE], the IC50 in [2] was 1.34 µM; on Histone deacetylase 1, 25.4 µM. For the same molecule, the Selectivity Index in the assay filed under Homo sapiens is 19.

For the molecule `O=C(NO)c1cccnc1` [NICOXAMAT], the IC50 in assay [2] turned out to be 0.679 µM; on Histone deacetylase 1, 35 µM. For the same molecule, the Selectivity Index in the assay filed under Homo sapiens was 51.

In the case of `Nc1ccc(C(=O)NO)cn1`, the IC50 in assay [2] worked out at 0.24 µM; at Histone deacetylase 1 it was 9.71 µM. Besides, the Selectivity Index in the assay filed under Homo sapiens turned out to be 40.

With `Cc1ccc(C(=O)NO)cc1`, the IC50 in [2] was found to be 0.14 µM; at Histone deacetylase 1 it was 5.64 µM. The Selectivity Index in the assay listed under Homo sapiens is 40.

As to `Cc1c(F)cc(C(=O)NO)cc1F`, the IC50 in assay [2] was 0.027 µM; at Histone deacetylase 1, 13.8 µM. Also, the Selectivity Index in the assay filed under Homo sapiens came out at 505.

As for `CC(=O)Nc1ccc(C(=O)NO)cc1F`, the IC50 in assay [2] turned out to be 0.058 µM; at Histone deacetylase 1, 3.21 µM. In the assay listed under Homo sapiens, the Selectivity Index turned out to be 55.
